Assay results published in ChEMBL document CHEMBL5576135, “Discovery of Indolo[3,2-c]isoquinoline Derivatives as Novel Top1/2 Dual Inhibitors with Orally Efficacious Antitumor Activity and Low Toxicity” (J Med Chem, 2024).
Calls of active or inactive are those of the source. No cut-off for these calls is given here.

Columns and labels:
[1] = Toxicity in Kunming mouse assessed as morphological change in kidney at 100 mg/kg,po administration for 2 weeks; format: organism-based; conditions: in vivo, 336 h
NCI-H446 [2] = assay: Induction of DNA damage in human NCI-H446 cells assessed as increase in intracellular ROS level at 4 to 8 uM incubated for 6 hrs by DCFHDA probe based fluorescence microscopic analysis; format: functional, cell-based; conditions: dose 4-8 µM
NCI-H446 [3] = assay: Induction of cell cycle arrest in human NCI-H446 cells assessed as accumulation of cells at G2/M phase at 1 to 2 uM incubated for 48 hrs by propidium iodide/RNase A staining based flow cytometry; format: functional; conditions: dose 1-2 µM
[4] = biological target: T1, DNA topoisomerase 1 (Homo sapiens) (UniProt P11387); assay: Inhibition of Topoisomerase I (unknown origin) using pBR322 DNA as substrate at 200 uM incubated for 15 mins by EtBr staining based agarose gel electrophoresis method relative to control
T1 sequence (whole entry): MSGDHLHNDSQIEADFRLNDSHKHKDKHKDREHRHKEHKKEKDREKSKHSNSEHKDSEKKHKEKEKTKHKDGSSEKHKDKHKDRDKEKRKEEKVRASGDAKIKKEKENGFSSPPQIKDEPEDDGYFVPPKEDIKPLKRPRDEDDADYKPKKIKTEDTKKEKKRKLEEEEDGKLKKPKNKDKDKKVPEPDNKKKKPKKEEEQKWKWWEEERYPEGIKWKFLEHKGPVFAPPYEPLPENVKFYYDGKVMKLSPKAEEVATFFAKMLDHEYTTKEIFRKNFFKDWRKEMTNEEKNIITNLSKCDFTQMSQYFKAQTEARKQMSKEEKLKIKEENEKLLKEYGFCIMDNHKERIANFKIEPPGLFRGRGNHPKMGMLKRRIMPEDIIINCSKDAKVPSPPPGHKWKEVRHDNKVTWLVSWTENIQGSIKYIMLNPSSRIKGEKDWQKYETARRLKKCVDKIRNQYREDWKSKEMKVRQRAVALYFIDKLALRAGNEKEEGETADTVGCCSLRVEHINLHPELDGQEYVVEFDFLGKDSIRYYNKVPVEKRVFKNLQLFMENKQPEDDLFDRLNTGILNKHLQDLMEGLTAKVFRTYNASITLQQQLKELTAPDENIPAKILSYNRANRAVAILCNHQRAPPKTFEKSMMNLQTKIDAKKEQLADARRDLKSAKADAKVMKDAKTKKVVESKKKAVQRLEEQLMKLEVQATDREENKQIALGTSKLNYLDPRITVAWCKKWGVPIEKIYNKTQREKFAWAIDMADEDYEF

[5] = biological target: T1, DNA topoisomerase 1 (Homo sapiens); assay: Inhibition of Topoisomerase I (unknown origin) using pBR322 DNA as substrate at 50 uM incubated for 15 mins by EtBr staining based agarose gel electrophoresis method
MCF7 = assay: Antiproliferative activity against human MCF7 cells assessed as inhibition of cell growth incubated for 96 hrs by MTT based ELISA; format: functional; conditions: MCF7, 96 h
[6] = MRT (0 to infinity) in ICR mouse at 10 mg/kg,po measured upto 24 hrs by LC-MS/MS analysis; format: ADME, organism-based; conditions: in vivo
HCT-116 = assay: Antiproliferative activity against human HCT-116 cells assessed as inhibition of cell growth incubated for 96 hrs by MTT based ELISA; format: functional; conditions: HCT-116, 96 h
A549 = assay: Antiproliferative activity against human A549 cells assessed as inhibition of cell growth incubated for 96 hrs by MTT based ELISA; format: functional; conditions: A549, 96 h
[7] = Toxicity in Kunming mouse assessed as change in organ coefficient of kidney at 100 mg/kg,po administration for 2 weeks; format: organism-based; conditions: in vivo, 336 h
PC-3 = assay: Antiproliferative activity against human PC-3 cells assessed as inhibition of cell growth incubated for 96 hrs by MTT based ELISA; format: functional; conditions: PC-3, 96 h
[8] = Toxicity in Kunming mouse assessed as change in serum creatinine level at 100 mg/kg,po administration for 2 weeks; format: organism-based; conditions: in vivo, 336 h
[9] = biological target: T1, DNA topoisomerase 1 (Homo sapiens); assay: Inhibition of Topoisomerase I (unknown origin) using pBR322 DNA as substrate at 10 uM incubated for 15 mins by EtBr staining based agarose gel electrophoresis method
[10] = AUC (0 to t) in ICR mouse at 10 mg/kg,po measured upto 24 hrs by LC-MS/MS analysis; format: ADME, organism-based; conditions: in vivo
NCI-H1650 = assay: Antiproliferative activity against human NCI-H1650 cells assessed as inhibition of cell growth incubated for 96 hrs by MTT based ELISA; format: functional; conditions: NCI-H1650, 96 h
[11] = MRT (0 to t) in ICR mouse at 10 mg/kg,po measured upto 24 hrs by LC-MS/MS analysis; format: ADME, organism-based; conditions: in vivo
NCI-H1975 = assay: Antiproliferative activity against human NCI-H1975 cells assessed as inhibition of cell growth incubated for 96 hrs by MTT based ELISA; format: functional; conditions: NCI-H1975, 96 h
[12] = Toxicity in Kunming mouse assessed as change in serum ALT level at 100 mg/kg,po administration for 2 weeks; format: organism-based; conditions: in vivo, 336 h
NCI-H446 [13] = assay: Inhibition of cell migration in human NCI-H446 cells at 2 uM incubated for 48 hrs by phase-contrast microscopic analysis relative to control; format: functional
[14] = Toxicity in Kunming mouse assessed as change in organ coefficient of lung at 100 mg/kg,po administration for 2 weeks; format: organism-based; conditions: in vivo, 336 h
NCI-H446 [15] = assay: Inhibition of colony formation in human NCI-H446 cells at 2 uM incubated for 24 hrs by crystal violet staining based analysis relative to control; format: functional
[16] = Antiproliferative activity against human BEAS-2B cells assessed as inhibition of cell growth incubated for 96 hrs by MTT based ELISA; format: toxicity
[17] = Toxicity in Kunming mouse assessed as change in organ coefficient of liver at 100 mg/kg,po administration for 2 weeks; format: organism-based; conditions: in vivo, 336 h
[18] = Toxicity in Kunming mouse assessed as change in body weight at 100 mg/kg,po administration for 2 weeks; format: organism-based; conditions: in vivo, 336 h
[19] = biological target: DNA topoisomerase 2-alpha (Homo sapiens) (UniProt P11388); assay: Inhibition of Topoisomerase 2 (unknown origin) using pBR322 DNA as substrate at 0.5 uM incubated for 15 mins by EtBr staining based agarose gel electrophoresis method
[20] = Toxicity in Kunming mouse assessed as lethal dose at po administration for 2 weeks; format: organism-based; conditions: in vivo
NCI-H446 [21] = assay: Induction of apoptosis in human NCI-H446 cells at 8 uM incubated for 48 hrs by Annexin V-FITC/PI staining based flow cytometry relative to control; format: functional
NCI-H446 [22] = assay: Antiproliferative activity against human NCI-H446 cells assessed as inhibition of cell growth incubated for 96 hrs by MTT based ELISA; format: functional; conditions: NCI-H446, 96 h
NCI-H446 [23] = assay: Induction of DNA damage in human NCI-H446 cells assessed as tail DNA at 8 uM incubated for 48 hrs by comet assay relative to control; format: functional
NCI-H446 [24] = assay: Inhibition of colony formation in human NCI-H446 cells at 1 uM incubated for 24 hrs by crystal violet staining based analysis relative to control; format: functional

Chain of DNA topoisomerase 2-alpha (Homo sapiens) (P11388 whole entry): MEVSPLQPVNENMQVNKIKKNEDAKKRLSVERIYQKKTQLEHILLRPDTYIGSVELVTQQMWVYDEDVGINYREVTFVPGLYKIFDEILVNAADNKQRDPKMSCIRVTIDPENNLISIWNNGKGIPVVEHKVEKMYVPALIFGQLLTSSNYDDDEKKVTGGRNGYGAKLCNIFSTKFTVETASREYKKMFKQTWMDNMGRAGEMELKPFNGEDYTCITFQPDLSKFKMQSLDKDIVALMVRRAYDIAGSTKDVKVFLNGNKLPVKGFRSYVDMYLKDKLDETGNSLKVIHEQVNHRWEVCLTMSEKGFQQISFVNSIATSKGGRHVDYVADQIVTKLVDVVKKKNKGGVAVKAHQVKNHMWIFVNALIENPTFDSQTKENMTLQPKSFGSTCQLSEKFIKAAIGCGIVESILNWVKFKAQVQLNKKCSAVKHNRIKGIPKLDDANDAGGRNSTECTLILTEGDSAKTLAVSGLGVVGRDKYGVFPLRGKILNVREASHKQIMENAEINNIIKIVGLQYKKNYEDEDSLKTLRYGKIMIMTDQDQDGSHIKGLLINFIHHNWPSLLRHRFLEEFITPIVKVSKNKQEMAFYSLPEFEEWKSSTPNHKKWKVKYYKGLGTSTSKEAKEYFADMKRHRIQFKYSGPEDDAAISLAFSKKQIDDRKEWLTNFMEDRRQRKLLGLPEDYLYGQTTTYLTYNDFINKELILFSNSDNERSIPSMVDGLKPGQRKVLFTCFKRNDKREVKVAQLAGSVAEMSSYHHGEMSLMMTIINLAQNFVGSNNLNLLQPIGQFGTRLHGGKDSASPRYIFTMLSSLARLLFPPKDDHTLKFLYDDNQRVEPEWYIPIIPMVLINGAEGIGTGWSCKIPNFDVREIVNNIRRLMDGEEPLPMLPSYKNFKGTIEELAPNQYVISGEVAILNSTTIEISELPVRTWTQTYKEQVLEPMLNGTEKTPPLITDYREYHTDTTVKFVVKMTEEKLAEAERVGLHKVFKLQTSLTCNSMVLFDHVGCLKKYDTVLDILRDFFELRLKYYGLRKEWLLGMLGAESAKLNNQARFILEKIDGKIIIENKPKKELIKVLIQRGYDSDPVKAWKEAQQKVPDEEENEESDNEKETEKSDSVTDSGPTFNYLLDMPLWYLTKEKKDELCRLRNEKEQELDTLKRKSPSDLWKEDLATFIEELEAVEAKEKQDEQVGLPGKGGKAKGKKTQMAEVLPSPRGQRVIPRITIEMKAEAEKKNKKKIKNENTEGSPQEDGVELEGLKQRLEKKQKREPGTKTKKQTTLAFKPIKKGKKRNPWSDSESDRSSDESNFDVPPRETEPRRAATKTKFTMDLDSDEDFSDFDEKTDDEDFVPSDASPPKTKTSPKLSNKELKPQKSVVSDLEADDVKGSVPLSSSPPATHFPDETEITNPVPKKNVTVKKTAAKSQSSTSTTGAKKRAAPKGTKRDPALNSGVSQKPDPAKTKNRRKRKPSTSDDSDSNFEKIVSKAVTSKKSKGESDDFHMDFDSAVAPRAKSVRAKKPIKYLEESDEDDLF

Structure (SMILES) | Activity [1] | Activity (NCI-H446 [2]) | Activity (NCI-H446 [3]) | inhibition [4] | inhibition [5] | IC50 (MCF7) | MRT inf [6] | IC50 (HCT-116) | IC50 (A549) | Activity [7] | IC50 (PC-3) | Activity [8] | inhibition [9] | AUC(0-t) at 24 h [10] | IC50 (NCI-H1650) | MRT last at 24 h [11] | IC50 (NCI-H1975) | Activity [12] | inhibition at 2 µM (NCI-H446 [13]) | Activity [14] | further results
CN(C)CCCn1c2cc3c(cc2c2ncc4ccccc4c21)OCO3 | Non-Toxic | Active | Active | > 95% | Active | 350 nM | 5 h | 210 nM | 1100 nM | Non-Toxic | 400 nM | Non-Toxic | Active | 2040 ng·h/mL | 880 nM | 5 h | 740 nM | Non-Toxic | 77.1% | Non-Toxic | inhibition at 2 µM (NCI-H446 [15]): > 90%; IC50 at 96 h [16]: 9570 nM; Activity [17]: Non-Toxic; Activity [18]: Non-Toxic; inhibition [19]: Active; LD50 at 336 h [20]: > 1000 mg/kg; Activity (NCI-H446 [21]): 95.3%; IC50 (NCI-H446 [22]): 90 nM; Activity (NCI-H446 [23]): 65.4%; inhibition at 1 µM (NCI-H446 [24]): > 90%
COc1ccc2c(c1)c1ncc3ccccc3c1n2CCCC(=O)NO | Non-Toxic | Active | Active | > 95% | Active | 670 nM | 1.72 h | 530 nM | 2510 nM | Non-Toxic | 970 nM | Non-Toxic | Active | 244 ng·h/mL | 1020 nM | 1.35 h | 960 nM | Non-Toxic | 73.2% | Non-Toxic | inhibition at 2 µM (NCI-H446 [15]): > 90%; IC50 at 96 h [16]: > 10000 nM; Activity [17]: Non-Toxic; Activity [18]: Non-Toxic; inhibition [19]: Active; LD50 at 336 h [20]: > 1000 mg/kg; Activity (NCI-H446 [21]): 77.5%; IC50 (NCI-H446 [22]): 120 nM; Activity (NCI-H446 [23]): 54.8%; inhibition at 1 µM (NCI-H446 [24]): > 90%
